Test results reported in patent US9744148B2, “Kallikrein 7 inhibitors” (SIXERA PHARMA AB, priority 2014, dated 2017).

Target: Active human KLK7 (SCCE) (Homo sapiens (Human), UniProt P49862)
Experiment: KLK7 Inhibitor Test
Assay type: biochemical
Details: substrate MeO-Suc-Arg-Pro-Tyr-pNA, pH 7.2, 37° C., absorbance at 405 nm
Method: KLK7 Inhibitor Test Substrate:(MeO-Suc-[…]), acetate salt, Peptide international, lot #906841, previously named S-2586 Enzyme: […] Buffer: 10 mM NaPhospate, 0.5 M NaCl, pH 7.2 […] 10 μl of substance in DMSO was added to wells giving final concentrations of 20 μ[…], and 0.15625 μM. 40 μl of active KLK7 (SCCE) (diluted to 12.5 μg/ml in activity buffer) was added all wells except blank to which activity buffer was added. […] The mean value V of each sample was calculated (n=2 for the substances and n=4 for the control). From the values of V the % of total activity was calculated as (Vinhibitor/Vcontrol (no inhibitor))×100. Plotting and calculation was then done in originPro. % of total activity (y) was plotted vs. log [inhibitor] (log x) and a function of dose response y=A1+(A2-A1)/(1+10^((LOG(x0)-x)*p)) where A1=Bottom platue, A2=Top platue, x0=EC50 and p=Hill slope was fitted to the curve. […] The IC50 values were used to identify KLK7 inhibitors according to the invention.

Active human KLK7 (SCCE), sequence (P49862 30-253): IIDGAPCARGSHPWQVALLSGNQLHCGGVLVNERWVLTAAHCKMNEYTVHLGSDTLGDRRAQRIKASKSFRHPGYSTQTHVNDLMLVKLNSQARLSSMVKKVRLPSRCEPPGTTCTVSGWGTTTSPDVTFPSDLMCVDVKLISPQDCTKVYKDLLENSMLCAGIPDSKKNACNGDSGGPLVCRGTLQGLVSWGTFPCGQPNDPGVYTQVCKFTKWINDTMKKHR

| SMILES | IC50 |
| --- | --- |
| Cc1cc(NC(=O)C(OC(=O)C(c2ccccc2)c2ccccc2)c2ccccc2)no1 (stereo not shown) [Compound 54, [2-[(5-methylisoxazol-3-yl)amino]-2-oxo-1-phenyl-ethyl] 2,2-diphenylacetate] | 1.1 µM |
| O=C(COC(=O)CCC1CCCC1)Nc1ccccc1 [Compound 55] | 1.11 µM |
| COc1ccc(CC(=O)OC(C(=O)Nc2ccc(F)cc2)c2ccccc2)cc1 (stereo not shown) [Compound 56] | 1.17 µM |
| COc1ccc(NC(=O)C(C)OC(=O)C(c2ccccc2)c2ccccc2)cc1 (stereo not shown) [Compound 57] | 1.18 µM |
| Cc1cc(NC(=O)COC(=O)CCC2CCCC2)no1 [Compound 58] | 1.2 µM |
| COc1ccc(NC(=O)COC(=O)C(NC(=O)c2ccccc2)c2ccccc2)cc1 (stereo not shown) [Compound 59, [2-(4-methoxyanilino)-2-oxo-ethyl] 2-benzamido-2-phenyl-acetate] | 1.23 µM |
| Cc1cc(NC(=O)COC(=O)C(NC(=O)c2ccccc2)c2ccccc2)no1 (stereo not shown) [Compound 60, [2-[(5-methylisoxazol-3-yl)amino]-2-oxo-ethyl] 2-benzamido-2-phenyl-acetate] | 1.47 µM |
| O=C(COC(=O)C(NC(=O)c1ccccc1)c1ccccc1)Nc1ccc(F)cc1 (stereo not shown) [Compound 61, [2-(4-fluoroanilino)-2-oxo-ethyl] 2-benzamido-2-phenyl-acetate] | 1.51 µM |
| O=C(COC(=O)C(NC(=O)c1ccccc1)c1ccccc1)Nc1ccccc1 (stereo not shown) [Compound 62, (2-anilino-2-oxo-ethyl) 2-benzamido-2-phenyl-acetate] | 1.56 µM |
| CC(OC(=O)C(c1ccccc1)c1ccccc1)C(=O)Nc1ccc(F)cc1 (stereo not shown) [Compound 63] | 1.62 µM |
| CCC(OC(=O)C(NC(=O)c1ccccc1)c1ccccc1)C(=O)Nc1ccc(OC)cc1 (stereo not shown) [Compound 64, 1-[(4-methoxyphenyl)carbamoyl]propyl 2-benzamido-2-phenyl-acetate] | 1.7 µM |
| CCC(OC(=O)C(NC(=O)c1ccccc1)c1ccccc1)C(=O)Nc1ccc(F)cc1 (stereo not shown) [Compound 65, 1-[(4-fluorophenyl)carbamoyl]propyl 2-benzamido-2-phenyl-acetate] | 1.79 µM |
| CC(OC(=O)C(NC(=O)c1ccccc1)c1ccccc1)C(=O)Nc1ccccc1 (stereo not shown) [Compound 66, (2-anilino-1-methyl-2-oxo-ethyl) 2-benzamido-2-phenyl-acetate] | 1.85 µM |
| COc1ccc(CC(=O)OCC(=O)Nc2ccc(F)cc2)cc1 [Compound 67] | 2.28 µM |
| COc1ccc(CC(=O)OCC(=O)Nc2ccc(OC)cc2)cc1 [Compound 68] | 2.31 µM |
| Cc1cc(NC(=O)COC(=O)CCC2CCCC2)no1 [Compound 69] | 2.7 µM |
| Cc1cc(NC(=O)C(OC(=O)Cc2ccc(Cl)cc2)C(C)C)no1 (stereo not shown) [Compound 70, [2-methyl-1-[(5-methylisoxazol-3-yl)carbamoyl]propyl] 2-(4-chlorophenyl)acetate] | 2.7 µM |
| COc1ccc(NC(=O)C(C)OC(=O)C(NC(=O)c2ccccc2)c2ccccc2)cc1 (stereo not shown) [Compound 71, [2-(4-methoxyanilino)-1-methyl-2-oxo-ethyl] 2-benzamido-2-phenyl-acetate] | 2.76 µM |
| Cc1cc(NC(=O)C(OC(=O)CCC2CCCC2)C(C)C)no1 (stereo not shown) [Compound 72, [2-methyl-1-[(5-methylisoxazol-3-yl)carbamoyl]propyl] 3-cyclopentylpropanoate] | 2.78 µM |
| Cc1cc(NC(=O)COC(=O)Cc2ccc(Cl)cc2)no1 [Compound 73] | 2.9 µM |
| COc1ccc(CC(=O)OCC(=O)Nc2cc(C)on2)cc1 [Compound 74] | 3.05 µM |
| Cc1cc(NC(=O)C(OC(=O)C(NC(=O)c2ccccc2)c2ccccc2)C(C)C)no1 (stereo not shown) [Compound 75, [2-methyl-1-[(5-methylisoxazol-3-yl)carbamoyl]propyl] 2-benzamido-2-phenyl-acetate] | 3.26 µM |
| O=C(NC(C(=O)OC(C(=O)Nc1ccccc1)c1ccccc1)c1ccccc1)c1ccccc1 (stereo not shown) [Compound 76, (2-anilino-2-oxo-1-phenyl-ethyl) 2-benzamido-2-phenyl-acetate] | 3.34 µM |

More lines, now with the values ahead:

| IC50 | SMILES |
| --- | --- |
| 3.89 µM | COc1ccc(CC(=O)OCC(=O)Nc2ccccc2)cc1 [Compound 77] |
| 4.33 µM | COc1ccc(NC(=O)C(OC(=O)C(c2ccccc2)c2ccccc2)c2ccccc2)cc1 (stereo not shown) [Compound 78, [2-(4-methoxyanilino)-2-oxo-1-phenyl-ethyl] 2,2-diphenylacetate] |
| 4.56 µM | Cc1cc(NC(=O)C(OC(=O)C(c2ccccc2)c2ccccc2)C(C)C)no1 (stereo not shown) [Compound 79, [2-methyl-1-[(5-methylisoxazol-3-yl)carbamoyl]propyl] 2,2-diphenylacetate] |
| 4.7 µM | Cc1cc(NC(=O)COC(=O)C(c2ccccc2)c2ccccc2)no1 [Compound 80] |
| 5 µM | Cc1cc(NC(=O)COC(=O)Cc2ccc(Cl)cc2)no1 [Compound 81, [2-[(5-methylisoxazol-3-yl)amino]-2-oxo-ethyl] 2-(4-chlorophenyl)acetate] |
| 5.5 µM | CCC(OC(=O)C(CCSC)NC(=O)c1ccccc1)C(=O)Nc1cc(C)on1 (stereo not shown) [Compound 82] |
| 5.89 µM | CC(OC(=O)C(NC(=O)c1ccccc1)c1ccccc1)C(=O)NCc1ccccc1 (stereo not shown) [Compound 83, [2-(benzylamino)-1-methyl-2-oxo-ethyl] 2-benzamido-2-phenyl-acetate] |
| 6.25 µM | COc1ccc(CC(=O)OC(C(=O)Nc2cc(C)on2)C(C)C)cc1 (stereo not shown) [Compound 84, [2-methyl-1-[(5-methylisoxazol-3-yl)carbamoyl]propyl] 2-(4-methoxyphenyl)acetate] |
| 6.43 µM | CCC(OC(=O)C(NC(=O)c1ccccc1)c1ccccc1)C(=O)Nc1cc(C)on1 (stereo not shown) [Compound 85] |
| 6.64 µM | Cc1cc(NC(=O)COC(=O)C(c2ccccc2)c2ccccc2)no1 [Compound 86] |
| 7.39 µM | COc1ccc(NC(=O)COC(=O)C(c2ccccc2)c2ccccc2)cc1 [Compound 87] |
| 8.49 µM | O=C(COC(=O)C(c1ccccc1)c1ccccc1)Nc1ccc(F)cc1 [Compound 88] |
| 9.1 µM | CCC(OC(=O)C(CC(C)C)NC(=O)c1ccccc1)C(=O)Nc1cc(C)on1 (stereo not shown) [Compound 89] |
| 11.2 µM | O=C(COC(=O)C(c1ccccc1)c1ccccc1)Nc1ccccc1 [Compound 90] |
| 4.1 µM | CC(C)C(OC(=O)Cc1ccc(Cl)cc1)C(=O)Nc1ccccc1 (stereo not shown) [Compound 91, [2-methyl-1-(phenylcarbamoyl)propyl] 2-(4-chlorophenyl)acetate] |
| 3.8 µM | COc1ccc(NC(=O)C(OC(=O)Cc2ccc(Cl)cc2)C(C)C)cc1 (stereo not shown) [Compound 92, [1-[(4-methoxyphenyl)carbamoyl]-2-methyl-propyl] 2-(4-chlorophenyl)acetate] |
| 2.3 µM | CC(C)C(OC(=O)C(NC(=O)c1ccccc1)c1ccccc1)C(=O)Nc1ccccc1 (stereo not shown) [Compound 93, [2-methyl-1-(phenylcarbamoyl)propyl] 2-benzamido-2-phenyl-acetate] |
| 3.6 µM | COc1ccc(CC(=O)OC(C(=O)Nc2ccccc2)C(C)C)cc1 (stereo not shown) [Compound 94, [2-methyl-1-(phenylcarbamoyl)propyl] 2-(4-methoxyphenyl)acetate] |
| 6.3 µM | COc1ccc(NC(=O)C(OC(=O)C(NC(=O)c2ccccc2)c2ccccc2)C(C)C)cc1 (stereo not shown) [Compound 95, [1-[(4-methoxyphenyl)carbamoyl]-2-methyl-propyl] 2-benzamido-2-phenyl-acetate] |
| 3.7 µM | CC(C)C(OC(=O)C(NC(=O)c1ccccc1)c1ccccc1)C(=O)Nc1ccc(F)cc1 (stereo not shown) [Compound 96, [1-[(4-fluorophenyl)carbamoyl]-2-methyl-propyl] 2-benzamido-2-phenyl-acetate] |
